Earlier results, collected in patent publication US20150231284A1, “MOLECULAR PROBE FOR IMAGING OF PANCREATIC ISLET AND THE PRECURSOR, AND USE OF THE SAME” (Kyoto University, priority 2009, published 2015).

How the values were obtained:
pancreatic islet cells = details: Document 2; cited from earlier work
[1] = tested on: GLP-1R-positive tumor cells; details: Document 2; cited from earlier work

## Lys^40(Ahx-DTPA-^111In)Exendin-4(9-39)
Pancreatic islet cells
  uptake in pancreatic islets: about 0.4%
[1]
  uptake in the GLP-1R-positive tumor cells: about 7.5%
